Entries after “also recorded” stand apart in the source; their conditions may differ.

Type in all cases: cell-based
For assay [1], the system named is porcine aortic endothelial cells. Briefly: DEP device cell deformation (centroid movement) of adhered cells. How it is done: (§1) Cells were released from tissue culture dishes with trypsin, seeded onto micropatterned PA gels, and 30 minutes was allowed for the cells to attach to the microspots 8. The medium was replaced and the PA gel was washed to remove unattached cells. Cells were then incubated on the micropatterned PA gels for 16-24 hours prior to taking measurements. Before the measurements, the cells were transferred into serum-free CO2-independent medium (Invitrogen™). In some samples, the actin cytoskeleton was disrupted with 200 nM cytochalasin D (Sigma Aldrich) for 15 minutes at room temperature in serum-free CO2-independent medium.
A micropatterned single cell array adhered to a PA gel was mounted on an inverted Olympus IX81 fluorescent microscope. The quadrupole DEP device 100 was attached to a micromanipulator (Eppendorf), and the electrodes were centered and lowered over a single adhered cell within approximately ˜10 μm of the cell. Electrical potential was applied using a function generator (BK Precision 3011B) set to 20 Vpp, 1 MHz. The positive function generator lead was diverted into two separate lines, each going to a resistance decade box, before connecting to diagonally opposing device electrodes as in FIG. 2D. With no extra resistance applied, both electrodes received the same voltage. Increasing resistance to one electrode decreased voltage to that electrode and therefore changed the magnitude of the DEP force as well as the force direction. […]
Bright-field images were taken every 0.5 seconds throughout each measurement. […] Cell deformation was quantified by measuring the distance between cell body centroid and the lower left corner of the cropped image. […]
(§2) Adhered porcine aortic endothelial cells were treated with cytochalasin D to determine the stiffness changes induced by cytochalasin D using the DEP device 100 of the present invention. […] The calculated cell elastic modulus in cytochalasin treated cells was about 0.3 kPa, while the cell elastic modulus in the untreated cells was calculated to be about […] (FIG. 10C).

For assay [2] the test system is unchanged. Briefly: Atomic force microscopy cell stiffness (elastic modulus), cytochalasin D treatment. The conditions noted are these: 200 nM cytochalasin D for 15 minutes. How it is done:
as §1
Atomic force microscopy (AFM, Bioscope DAFM-2X, Veeco) was used to validate DEP device 100 cell stiffness measurements (elastic modulus). A silicon nitride cantilever with 1 μm spherical tip (196 μm long, 23 μm wide, 600 nm thick, spring constant 0.06 N/m, Novascan) was used to indent each measured cell at three distinct locations. […] At least six cells for each cell condition or cell type were measured.
as §2

Assay [3] concerns Endothelial cells. Briefly: Atomic force microscopy cell stiffness (elastic modulus) after TNF-α treatment. Conditions: cells on 55 kPa micropatterned PA gels. From the text:
Atomic force microscopy (AFM, Bioscope DAFM-2X, Veeco) was used to validate DEP device 100 cell stiffness measurements (elastic modulus). A silicon nitride cantilever with 1 μm spherical tip (196 μm long, 23 μm wide, 600 nm thick, spring constant 0.06 N/m, Novascan) was used to indent each measured cell at three distinct locations. Elastic modulus was estimated by fitting the first 200 nm of the indentation curves to a Hertz model (Solon et al., “Fibroblast adaptation and stiffness matching to soft elastic substrates,” Biophys. J., vol. […], pages 4453-4461, 2007). Three measurements per cell were averaged and defined as the cell stiffness. At least six cells for each cell condition or cell type were measured.
Endothelial cells were cultured for 24 hours on micropatterned PA gels with stiffness of 55 kPa using 25 μm fibronectin circles as the microspots 8 to allow focal adhesion formation. The micropatterned PA gel was used in a DEP device 100 of the present invention provided with a microfluidic chamber 14. The quadrupole electrodes 4 were lowered with a single cell aligned within the cage of each quadrupole electrode 4. TNF-α was introduced to the microfluidic chamber 14 to expose the cells thereto. Cell stiffness or cell elastic modulus of the endothelial cell after TNF-α treatment was measured using AFM.

In the case of `C=C1[C@@H](C)[C@H]2[C@H](Cc3ccccc3)NC(=O)[C@]23[C@H](OC(C)=O)/C=C/[C@@](C)(O)C(=O)[C@@H](C)C/C=C/[C@H]3[C@@H]1O` [cytochalasin D], in assay [1] (200 nM cytochalasin D for 15 minutes, compared with untreated adhered cells under the same DEP force), the “cell centroid movement / deformation under dielectrophoretic force” value is recorded as “Untreated endothelial cells showed centroid deformations consistently smaller than treated endothelia cells; also recorded: increased”. Further, the “cell centroid restoration to the center position” value in assay [1] (200 nM cytochalasin D for 15 minutes, compared with untreated cells) was “slower”. For the same compound, in assay [1] (cytochalasin D treatment, three different DEP forces), the “cell stiffness (DEP device)” value is recorded as “decreases cell stiffness”. Also, in assay [2], the “calculated cell elastic modulus (AFM)” value is on record as “about 0.3 kPa” and the “cell stiffness / cell modulus (AFM), change compared with untreated cells” value is listed as “decreased the stiffness; also recorded: lower”.

On to TNF-α, for which, in assay [3], the “endothelial cell stiffness / elastic modulus (AFM), change compared with untreated cells” value is on record as “Increased; also recorded: higher”.

(Values after US20150285760A1, “DIELECTROPHORETIC DEVICE FOR ANALYSIS OF CELL MECHANICS” (DREXEL UNIVERSITY, priority 2014, published 2015).)
